Test results taken from patent US10822345B2 (4SC AG, priority 2015, dated 2020).

Columns and labels:
Kv1.3 = Kv1.3 (Homo sapiens (Human), UniProt P22001); assay: Patch-clamp assay for inhibitory activity on Kv1.3 (whole cell recording); format: cell-based; details: n≥2 per concentration, three or more concentrations
Protocol: Patch-Clamp Assay for Inhibitory Activity on Kv1.3
For a description of a Kv1.3 patch-clamp assay, see Grissmer et al., Mol. Pharmacol. 1994, 45, 1227; whole cell patch-clamp recording was performed with n≥2 individual experiments at each compound concentration using different cells. Three or more different concentrations were determined per dose response curve.

female Dark Agouti rats = assay: Pristane-induced arthritis (PIA) model; format: in vivo, rat; details: MTX 0.05 mg/kg i.p., sid, DAY16 to DAY30; maximum AI=16; controls AI around 14; p=0.001
Protocol: Pristane-Induced Arthritis (PIA) Model
Arthritis was induced in female Dark Agouti rats by intradermal injection of 150 μL/rat pristane into the base of the tail on DAY0, according to Vingsbo et al., Am. J. Pathol. 1996, 149, 1675. Compound treatment was started on DAY16 and continued until DAY30, dosing Example 53 at 60 mg/kg, p.o., sid, and Example 34 at 45 mg/kg, p.o., bid, each in a lipophilic formulation. As a positive control, methotrexate (MTX) was dosed i.p., sid, with 0.05 mg/kg, also starting DAY16. Arthritis development was monitored daily by a macroscopic scoring system for the four limbs ranging from 0 to 4 (0=no visible effects of arthritis; 1=edema and/or erythema of one digit; 2=edema and/or erythema of two joints; 3=edema and/or erythema of more than two joints; 4=severe arthritis of the entire paw and digits, associated with ankylosis and deformity of the paw.), resulting in an Arthritic Index (AI) reflecting the sum of scores of all 4 limbs per rat (maximum AI=16).
Disease induction in saline-treated and vehicle-treated control animals reached a maximum of AI around 14.

Sequence of Kv1.3 (P22001 whole entry): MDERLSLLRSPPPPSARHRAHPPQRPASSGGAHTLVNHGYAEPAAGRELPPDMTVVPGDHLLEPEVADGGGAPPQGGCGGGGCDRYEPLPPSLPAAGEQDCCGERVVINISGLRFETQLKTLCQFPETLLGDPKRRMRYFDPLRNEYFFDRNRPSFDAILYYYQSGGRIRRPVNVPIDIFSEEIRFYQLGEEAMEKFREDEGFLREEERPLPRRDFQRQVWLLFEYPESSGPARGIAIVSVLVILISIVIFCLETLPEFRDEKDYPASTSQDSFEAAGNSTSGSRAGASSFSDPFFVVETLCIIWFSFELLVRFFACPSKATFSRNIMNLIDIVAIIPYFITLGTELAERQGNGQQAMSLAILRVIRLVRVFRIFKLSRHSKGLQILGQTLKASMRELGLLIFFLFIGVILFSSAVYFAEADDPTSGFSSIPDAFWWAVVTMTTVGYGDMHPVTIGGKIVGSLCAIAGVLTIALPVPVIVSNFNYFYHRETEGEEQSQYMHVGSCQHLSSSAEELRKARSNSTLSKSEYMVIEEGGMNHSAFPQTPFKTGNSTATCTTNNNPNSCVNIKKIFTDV

SMILES	IC50 (Kv1.3) [nM]	Arthritic Index (AI) (female Dark Agouti rats)
COc1ccccc1-c1cc(=O)oc2c(C)c3occ(C)c3cc12 [Example 1, 5-(2-methoxyphenyl)-3,9-dimethyl-7H-furo[3,2-g]chromen-7-one]	≤ 500	
Cc1c(-c2ccccc2F)c2cc3c(C)coc3c(C)c2oc1=O [Example 5, 5-(2-fluorophenyl)-3,6,9-trimethyl-7H-furo[3,2-g]chromen-7-one]	≤ 500	
COc1ccccc1-c1c(C)c(=O)oc2c(C)c3occ(C)c3cc12 [Example 7, 5-(2-methoxyphenyl)-3,6,9-trimethyl-7H-furo[3,2-g]chromen-7-one]	≤ 500	
Cc1coc2c(C)c3oc(=O)cc(-c4ccccc4F)c3cc12 [Example 8, 5-(2-fluorophenyl)-3,9-dimethyl-7H-furo[3,2-g]chromen-7-one]	≤ 500	
Cc1c(-c2ccccc2)c2cc3c(C)coc3c(C)c2oc1=O [Example 9, 3,6,9-trimethyl-5-phenyl-7H-furo[3,2-g]chromen-7-one]	≤ 500	
CCOc1ccccc1-c1c(C)c(=O)oc2c(C)c3occ(C)c3cc12 [Example 10, 5-(2-ethoxyphenyl)-3,6,9-trimethyl-7H-furo[3,2-g]chromen-7-one]	≤ 500	
Cc1c(-c2ccccc2Cl)c2cc3c(C)coc3c(C)c2oc1=O [Example 11, 5-(2-chlorophenyl)-3,6,9-trimethyl-7H-furo[3,2-g]chromen-7-one]	≤ 500	
CCc1coc2c(C)c3oc(=O)c(C)c(-c4ccccc4)c3cc12 [Example 16, 3-ethyl-6,9-dimethyl-5-phenyl-7H-furo[3,2-g]chromen-7-one]	≤ 500	
Cc1c(-c2ccccc2)c2cc3c(C)coc3nc2oc1=O [Example 25, 3,6-dimethyl-5-phenyl-7H-furo[2,3-b]pyrano[3,2-e]pyridin-7-one]	≤ 500	
Cc1coc2c(C)c3[nH]c(=O)c(Br)c(-c4ccccc4)c3cc12 [Example 26, 6-bromo-3,9-dimethyl-5-phenylfuro[3,2-g]quinolin-7(8H)-one]	≤ 500	
Cc1coc2c(C)c3[nH]c(=O)c(Br)c(-c4ccccc4F)c3cc12 [Example 27, 6-bromo-5-(2-fluorophenyl)-3,9-dimethylfuro[3,2-g]quinolin-7(8H)-one]	501 to 1500	
Cc1c(-c2ccccc2F)c2cc3c(C)coc3c(C)c2[nH]c1=O [Example 30, 5-(2-fluorophenyl)-3,6,9-trimethylfuro[3,2-g]quinolin-7(8H)-one]	≤ 500	
Cc1c(-c2ccccc2)c2cc3c(C)coc3c(C)c2[nH]c1=O [Example 31, 3,6,9-trimethyl-5-phenylfuro[3,2-g]quinolin-7(8H)-one]	≤ 500	
Cc1coc2c(C)c3c(cc12)c(-c1ccccc1)c(Br)c(=O)n3C [Example 33, 6-bromo-3,8,9-trimethyl-5-phenylfuro[3,2-g]quinolin-7(8H)-one]	≤ 500	
Cc1c(-c2ccccc2)c2cc3c(C)coc3c(C)c2n(C)c1=O [Example 34, 3,6,8,9-tetramethyl-5-phenylfuro[3,2-g]quinolin-7(8H)-one]	≤ 500	
Cc1c(-c2ccccc2)c2cc3c(C)noc3c(C)c2[nH]c1=O [Example 36, 3,6,9-trimethyl-5-phenylisoxazolo[4,5-g]quinolin-7(8H)-one]	≤ 500	
Cc1c(-c2ccccc2Cl)c2cc3c(C)coc3c(C)c2[nH]c1=O [Example 40, 5-(2-chlorophenyl)-3,6,9-trimethylfuro[3,2-g]quinolin-7(8H)-one]	≤ 500	
Cc1c2oc(=O)cc(-c3ccccc3)c2cc2c(C3CC3)coc12 [Example 41, 3-cyclopropyl-9-methyl-5-phenyl-7H-furo[3,2-g]chromen-7-one]	≤ 500	
Cc1c(-c2ccccc2)c2cc3c(C)csc3c(C)c2oc1=O [Example 43, 3,6,9-trimethyl-4-phenyl-2H-thieno[3,2-g]chromen-2-one]	≤ 500	
Cc1c(-c2ccccc2)c2cc3c(C)c(C#N)oc3c(C)c2oc1=O [Example 45]	1500 to 3000	
Cc1c(-c2ccccc2)c2cc3c(C)coc3nc2n(C)c1=O [Example 49, 3,6,8-trimethyl-5-phenylfuro[2,3-b][1.8]naphthyridin-7(8H)-one]	≤ 500	
Cc1c(-c2cccnc2)c2cc3c(C)coc3c(C)c2oc1=O [Example 53, 3,6,9-trimethyl-5-(pyridin-3-yl)-7H-furo[3,2-g]chromen-7-one]	≤ 500	
Cc1c(-c2cccnc2)c2cc3c(C)coc3c(C)c2[nH]c1=O [Example 54, 3,6,9-trimethyl-5-(pyridin-3-yl)furo[3,2-g]quinolin-7(8H)-one]	≤ 500	
Cc1c(-c2ccccc2Cl)c2cc3c(C)coc3c(C)c2n(C)c1=O [Example 60, 5-(2-chlorophenyl)-3,6,8,9-tetramethylfuro[3,2-g]quinolin-7(8H)-one]	≤ 500	
Cc1c(-c2ccccc2F)c2cc3c(C)coc3c(C)c2n(C)c1=O [Example 61, 5-(2-fluorophenyl)-3,6,8,9-tetramethylfuro[3,2-g]quinolin-7(8H)-one]	≤ 500	
COc1ncccc1-c1c(C)c(=O)oc2c(C)c3occ(C)c3cc12 [Example 62, 5-(2-methoxypyridin-3-yl)-3,6,9-trimethyl-7H-furo[3,2-g]chromen-7-one]	501 to 1500	
CN(Cc1cnc2nc(N)nc(N)c2n1)c1ccc(C(=O)N[C@@H](CCC(=O)O)C(=O)O)cc1 [MTX, methotrexate]		~8.7
